Measurements as given in patent publication US5750509A, “Amide derivatives of antibiotic A 40926” (Gruppo Lepetit S.p.A., priority 1991, dated 1998).

How the values were obtained:
Entero. faecalis L 562 = assay: MIC, microbroth dilution, Entero. faecalis L 562; type: cell-based, Enterococcus faecalis
[1] = system: Enterococcus faecium L 564; assay: MIC, glycopeptide-resistant Enterococcus faecium L 564; type: cell-based
[2] = system: Enterococcus faecium L 565; assay: MIC, glycopeptide-resistant Enterococcus faecium L 565; type: cell-based
[3] = system: Enterococcus faecium L 569; assay: MIC, glycopeptide-resistant Enterococcus faecium L 569; type: cell-based
[4] = system: Enterococcus faecium L 1650; assay: MIC, glycopeptide-resistant Enterococcus faecium L 1650; type: cell-based
[5] = system: Enterococcus faecium L 1652; assay: MIC, glycopeptide-resistant Enterococcus faecium L 1652; type: cell-based
[6] = system: Enterococcus faecium L 1666; assay: MIC, glycopeptide-resistant Enterococcus faecium L 1666; type: cell-based
[7] = system: Enterococcus faecium L 1680; assay: MIC, glycopeptide-resistant Enterococcus faecium L 1680; type: cell-based
[8] = system: Enterococcus faecium L 1681; assay: MIC, glycopeptide-resistant Enterococcus faecium L 1681; type: cell-based
[9] = system: Enterococcus faecium L 1683; assay: MIC, glycopeptide-resistant Enterococcus faecium L 1683; type: cell-based
[10] = system: Enterococcus faecium L 1686; assay: MIC, glycopeptide-resistant Enterococcus faecium L 1686; type: cell-based
[11] = system: highly glycopeptide-resistant enterococci; assay: in vitro activity against highly glycopeptide-resistant enterococci (summary); type: cell-based
Staph. aureus L 165 = assay: MIC, microbroth dilution, Staph. aureus L 165; type: cell-based; conditions: Table II
Staph. aureus L 561 = assay: MIC, microbroth dilution, Staph. aureus L 561; type: cell-based; conditions: Table II
Staph. epidermidis L 147 = assay: MIC, microbroth dilution, Staph. epidermidis L 147; type: cell-based; conditions: Table II
Staph. epidermidis L 533 = assay: MIC, microbroth dilution, Staph. epidermidis L 533; type: cell-based; conditions: Table II
[12] = system: Staph. haemolyticus L 602; assay: MIC, microbroth dilution, Staph. haemolyticus L 602; type: cell-based; conditions: Table II
Strep. pyogenes L 49 = assay: MIC, microbroth dilution, Strep. pyogenes L 49; type: cell-based; conditions: Table II
Strep. pneumoniae L 44 = assay: MIC, microbroth dilution, Strep. pneumoniae L 44; type: cell-based; conditions: Table II
Entero. faecalis L 149 = assay: MIC, microbroth dilution, Entero. faecalis L 149; type: cell-based; conditions: Table II
Neisseria gonorrh. L 997 = assay: MIC, microbroth dilution, Neisseria gonorrh. L 997; type: cell-based, Neisseria gonorrhoeae; conditions: Table II
Esch. coli L 47 = assay: MIC, microbroth dilution, Esch. coli L 47; type: cell-based; conditions: Table II
Pseudomonas aerug. L 4 = assay: MIC, microbroth dilution, Pseudomonas aerug. L 4; type: cell-based; conditions: Table II
Proteus vulgaris L 79 = assay: MIC, microbroth dilution, Proteus vulgaris L 79; type: cell-based; conditions: Table II
[13] = system: Enterococcus faecalis L 560; assay: MIC, glycopeptide-resistant Enterococcus faecalis L 560; type: cell-based; conditions: Table III
[14] = system: Enterococcus faecalis L 563; assay: MIC, glycopeptide-resistant Enterococcus faecalis L 563; type: cell-based; conditions: Table III
Strep. pyogenes C 203 = assay: experimental streptococcal septicemia in mice; type: in vivo; conditions: Strep. pyogenes C 203 septicemia, adm. route sc
Source text: The experiments have been carried out according to the procedure described by V. Arioli et al., Journal of Antibiotics 29, 511 (1976).

Compound `CN[C@H](CC(C)C)C(=O)N[C@H]1C(=O)N[C@@H](CC(N)=O)C(=O)N[C@H]2C(=O)N[C@H]3C(=O)N[C@H](C(=O)N[C@H](C(=O)O)c4cc(O)cc(O)c4-c4cc3ccc4O)[C@H](O)c3ccc(c(Cl)c3)Oc3cc2cc(c3O[C@@H]2O[C@H](CO)[C@@H](O)[C@H](O)[C@H]2O[C@H]2C[C@](C)(N)[C@H](O)[C@H](C)O2)Oc2ccc(cc2Cl)[C@H]1O` [VANCOMYCIN, vancomycin] has an MIC (Entero. faecalis L 562; Enterococcus faecalis, L562) greater than 128 µg/mL, an MIC ([1]; Enterococcus faecium, L564) greater than 128 µg/mL and an MIC ([2]; Enterococcus faecium, L565) greater than 128 µg/mL. For the same compound, the MIC ([3]; Enterococcus faecium, L569) was greater than 128 µg/mL, the MIC ([4]; Enterococcus faecium, L1650) was greater than 128 µg/mL and the MIC ([5]; Enterococcus faecium, L1652) was greater than 128 µg/mL. For the same compound, the MIC ([6]; Enterococcus faecium, L1666) was greater than 128 µg/mL, the MIC ([7]; Enterococcus faecium, L1680) was greater than 128 µg/mL and the MIC ([8]; Enterococcus faecium, L1681) was greater than 128 µg/mL. For the same compound, the MIC ([9]; Enterococcus faecium, L1683) was greater than 128 µg/mL, the MIC ([10]; Enterococcus faecium, L1686) was greater than 128 µg/mL and the “in vitro activity / resistance in words” value [11] was “highly resistant”.

In the case of teicoplanin, the MIC (Staph. aureus L 165) is reported as 0.25 µg/mL, the MIC (Staph. aureus L 561) is reported as 8 µg/mL and the MIC (Staph. epidermidis L 147) is reported as 4 µg/mL. The MIC (Staph. epidermidis L 533) was 8 µg/mL, the MIC [12] was 32 µg/mL and the MIC (Strep. pyogenes L 49) was 0.13 µg/mL. It also gave an MIC (Strep. pneumoniae L 44) of 0.06 µg/mL, an MIC (Entero. faecalis L 149) of 0.13 µg/mL and an MIC (Entero. faecalis L 562; Entero. faecalis L 562, Table II) greater than 128 µg/mL. For the same compound, the MIC (Entero. faecalis L 562; Enterococcus faecalis L 562, Table III) was greater than 128 µg/mL, the MIC (Neisseria gonorrh. L 997) was 32 µg/mL and the MIC (Esch. coli L 47) was greater than 128 µg/mL. For the same compound, the MIC (Pseudomonas aerug. L 4) was greater than 128 µg/mL, the MIC (Proteus vulgaris L 79) was greater than 128 µg/mL and the MIC [13] was greater than 128 µg/mL. For the same compound, the MIC [14] was greater than 128 µg/mL, the MIC ([1]; Enterococcus faecium L 564, Table III) was greater than 128 µg/mL and the MIC ([2]; Enterococcus faecium L 565, Table III) was greater than 128 µg/mL. For the same compound, the MIC ([3]; Enterococcus faecium L 569, Table III) was greater than 128 µg/mL, the MIC ([4]; Enterococcus faecium L 1650, Table III) was greater than 128 µg/mL and the MIC ([5]; Enterococcus faecium L 1652, Table III) was greater than 128 µg/mL. The MIC ([6]; Enterococcus faecium L 1666, Table III) was greater than 128 µg/mL, the MIC ([7]; Enterococcus faecium L 1680, Table III) was greater than 128 µg/mL and the MIC ([8]; Enterococcus faecium L 1681, Table III) was greater than 128 µg/mL. For the same compound, the MIC ([9]; Enterococcus faecium L 1683, Table III) was greater than 128 µg/mL, the MIC ([10]; Enterococcus faecium L 1686, Table III) was greater than 128 µg/mL and the ED50 (Strep. pyogenes C 203) was 0.16 mg/kg. The “in vitro activity / resistance in words” value [11] was “highly resistant”.
